Experiment [1] has as its target T1, AT1R (Homo sapiens, UniProt P30556).
T1 sequence (P30556 1-359): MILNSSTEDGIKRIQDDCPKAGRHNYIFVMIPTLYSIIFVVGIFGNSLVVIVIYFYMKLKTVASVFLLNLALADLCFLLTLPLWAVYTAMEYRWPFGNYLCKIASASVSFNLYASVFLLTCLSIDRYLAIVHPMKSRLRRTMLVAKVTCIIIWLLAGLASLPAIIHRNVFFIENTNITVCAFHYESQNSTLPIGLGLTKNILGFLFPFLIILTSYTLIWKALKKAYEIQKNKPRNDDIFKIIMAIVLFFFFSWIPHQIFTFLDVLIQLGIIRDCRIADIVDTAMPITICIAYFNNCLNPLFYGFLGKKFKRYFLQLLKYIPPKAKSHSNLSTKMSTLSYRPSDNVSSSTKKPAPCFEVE
The experiment in a line: Gαq activation BRET (GABY sensor) in HEK293 cells expressing AT1R. To be noted: for Emax Gαq (% AngII): HEK293/AT1R, GABY BRET sensor, response of the ligand at 10 μM, normalised to AngII; for EC50: HEK293 cells transiently expressing human AT1R, Gαq-RlucII/Gβ1/Gγ1-GFP10 (GABY) BRET sensor, BRET read 10 min after ligand, mean ± SEM of at least three to five independent experiments. The format is cell-based. Set-up: expressed in transfected cells; host or cells: HEK293 cells, transient PEI transfection. The source says: (§1) We utilized a clonal cell line HEK293, referred to hereafter as HEK293 cells, which has been previously described.[7],[8] As a gracious gift from A. Inoue (Tohoku University, Sendai, Miyagi, Japan), CRISPR Gαq/11 and Gα12/13 knockout cell lines (ΔGq/11 and ΔG12/13, respectively), were derived as previously explained.[48] In brief, a CRISPR-Cas9 system was used to target either GNAQ and GNA11 or GNA12 and GNA13 genes in HEK293T cells simultaneously to generate the Gαq/11 and Gα12/13 knockout cell lines. For the production of adenovirus, we utilized HEK293A cells. All cells were grown in DMEM supplemented with 10% FBS and Penicillin-Streptomycin-L-Glutamine (10000 IU penicillin, 10000 µg/mL Streptomycin, 200 mM L-Glutamine) at 37°C in T175 flasks under a 5% CO2 humidified chamber. Periodic testing was carried out for mycoplasma contamination (ABM™, Mycoplasma PCR Detection kit). For all biosensors used, cells underwent transfection with the PEI reagent, employing a PEI:DNA ratio of 3:1. For the Gαq biosensor, HEK293 cells were transfected with the plasmids coding for Gαq-RLucII (120 ng), Gβ1 (3000 ng), Gγ1-GFP10 (3000 ng), human AT1 (3000 ng) and Salmon sperm DNA (SSD) (880 ng). For the β-arrestin2 recruitment assay, HEK293 cells were transfected with the plasmids coding for 120 ng β-arrestin-2-RLucII, 3000 ng AT1, 3000 ng rGFP-CAAX, and 3880 ng SSD. For the measurement of PKC, HEK293 cells were transfected with 3000 ng AT1, 600 ng PKC-c1b, and 6400 ng SSD. […] 100 µL of the cell/DNA mixture was added to white 96-well plates and incubated at 37°C at 5% CO2 for 48 h. For the Rho assay, ΔG12/13 cells were seeded at a density of 9,000 cells per well in poly-ornithine-coated white 96-well plates and transfected the following day. In brief, 1 μg of total DNA in 100 μL of PBS was mixed with 100 μL of PBS containing 3 μL of 1 mg/mL PEI. For Rho signaling, 150 ng of AT1R DNA with 25 ng of PKN-RBD-RlucII [8], and 100 ng of rGFP-CAAX were used. Empty pcDNA was used to reach 1 µg of the total DNA amount in 100 μL of PBS. The DNA was then mixed with 100 μL of PBS containing 3 μL of 1 mg/mL PEI. After a 20-min incubation, the DNA/PEI complexes were dispensed into cells in 96-well plates (15 µL/well), and the experiment was carried out 48 h post-transfection.
On the day of the experiment, each well was washed with 80 µL of Tyrode’s buffer (140 mM NaCl, 2.7 mM KCl, 1 mM CaCl2, 12 mM NaHCO3, 5.6 mM D-glucose, 0.5 mM MgCl2, 0.37 mM NaH2PO4, 25 mM Hepes (pH 7.4)). This was followed by incubation for 1 h in Tyrode’s buffer at room temperature. For the Gαq, β-arrestin-2, and PKC biosensors used in HEK293 cells, coelenterazine 400A (at a final concentration of 5 μM) was added 10 min before stimulation. Cells were then stimulated with increasing doses of the indicated ligand, and BRET signals were measured using a Tristar2 (Berthold) microplate reader 10 min later. For the PKC and Rho biosensors in VSMCs, and the Rho biosensor in ΔG12/13 cells, cells were similarly stimulated with ligands for 1 min, 1 min 30 s, and 3 min, respectively, before BRET measurement. […] BRET signals were then measured using a Synergy2 (BioTek) microplate reader. The applied filter set was 410/80 nm and 515/30 nm, designed to detect the light emissions of RlucII (Renilla luciferase) (donor) and rGFP (acceptor), respectively.
A general note: In BRET a luciferase serves as donor, and the signal depends on an acceptor being close.

The target in experiment [2] is T1, AT1R. Nature of the experiment: PKC BRET sensor in HEK293 cells expressing AT1R. The format is cell-based. The arrangement: expressed in transfected cells; host or cells: HEK293 cells, transient PEI transfection. To be noted: for Emax PKC (% AngII): PKC BRET sensor, response at 10 μM, normalised to AngII; for EC50: PKC-c1b BRET sensor, read 10 min after ligand, mean ± SEM of at least three to five independent experiments, SEM.
Text: as §1
On the day of the experiment, each well was washed with 80 µL of Tyrode’s buffer (140 mM NaCl, 2.7 mM KCl, 1 mM CaCl2, 12 mM NaHCO3, 5.6 mM D-glucose, 0.5 mM MgCl2, 0.37 mM NaH2PO4, 25 mM Hepes (pH 7.4)). This was followed by incubation for 1 h in Tyrode’s buffer at room temperature. […] Cells were then stimulated with increasing doses of the indicated ligand, and BRET signals were measured using a Tristar2 (Berthold) microplate reader 10 min later. […] BRET signals were then measured using a Synergy2 (BioTek) microplate reader. […]

Bounds are passed on as bounds.

A word on the EC50: it is the midpoint of the concentration-response curve.

As to `CC[C@H](C)[C@H](NC(=O)[C@H](Cc1ccc(O)cc1)NC(=O)[C@@H](NC(=O)[C@H](CCCNC(=N)N)NC(=O)[C@@H](N)CC(=O)O)C(C)C)C(=O)N[C@@H](Cc1c[nH]cn1)C(=O)N1CCC[C@H]1C(=O)N[C@@H](Cc1ccc(OCc2ccccc2)cc1)C(=O)O` [compound 12], in experiment [1], the “Emax Gαq (% AngII)” value was 11 % AngII and the EC50 is above 10000 nM. Also, in experiment [2], the “Emax PKC (% AngII)” value came out at 51 % AngII and the concentration giving a half-maximal response (EC50) was 4.8 ± 3.4 nM.

Regarding `CC[C@H](C)[C@H](NC(=O)[C@H](Cc1ccc(O)cc1)NC(=O)[C@@H](NC(=O)[C@H](CCCNC(=N)N)NC(=O)[C@@H](N)CC(=O)O)C(C)C)C(=O)N[C@@H](Cc1c[nH]cn1)C(=O)N1CCC[C@H]1C(=O)N[C@@H](Cc1ccc(OC)cc1)C(=O)O` [compound 11], in experiment [1], the “Emax Gαq (% AngII)” value stood at 113 % AngII. For the same compound, the EC50 in experiment [1] (SEM) came to 1.1 ± 0.4 nM. Moreover, in experiment [2], the “Emax PKC (% AngII)” value is 105 % AngII and the EC50 came to 0.66 ± 0.13 nM.

The values are drawn from article doi:10.1101/2025.08.13.670122v1 (bioRxiv, 2025).
